From patent publication US6818643B1, “Neurotrophic bicyclic diamides” (Bristol-Myers Squibb Company, priority 1999, dated 2004) come the findings set out here.

SMILES strings stand for the structures.

The term inhibition denotes the drop in the measured response relative to a control, in per cent. In general, Ki refers to a measure of affinity in units of concentration, obtained from inhibition or displacement.

The target in test [1] is T1, FKBP12 (Homo sapiens, UniProt P62942). Briefly: FKBP12 Rotamase Inhibition Assay. The class given is biochemical. The protocol: FKBP12 Rotamase Inhibition Assay
The rotamase activity of FKBP-12 was measured by an adaptation of the assay described by Kofron et al. (Biochemistry, 30, pp. 6127-6134 (1991)). The assay was carried out at 4° C. with 1 mg chymotrypsin/mL of assay with succinyl-Ala-Leu-Pro-Phe-p-nitroanilide as the substrate. Chymotrypsin rapidly hydrolyzes the peptide bond on the C-terminal side of the Phe of the trans form of the peptide and releases the chromogenic p-nitroaniline. The rate of the reaction is controlled by the rate of conversion of the cis form of the peptide to the trans-form, the reaction catalyzed by FKBP12. The apparent Ki values for inhibition of the rotamase activity were determined by measuring decreases in the first order rate constant of the reaction catalyzed by FKBP12 as a function of the concentrations of the compounds described herein. Ki is the concentration of the compound that causes 50 percent inhibition of rotamase activity which is indicative of neurite outgrowth activity.

The target of test [2] is T1, FKBP12. Briefly: Fluorescence Polarization (FP) Assay of FKBP12 Binding. The conditions noted are these: for Ki: rotamase Ki derived from FP assay; for inhibition at 1 µM: read-out: % FP inhibition at 1 μM. The protocol:
Fluorescence Polarization (FP) Assay of FKBP12 Binding
The buffer (25 mM HEPES, 100 mM sodium chloride, pH 7.5) with pre-mixed enzyme and fluorescent ligand is distributed into wells (190 μL/well). Inhibitors are added as 10 μL of a 10% dimethylsulfoxide solution in the same buffer. FP is measured with an excitation wavelength of 485 nm and emission wavelength of 520 nm.
For orientation: Fluorescence polarisation rises when a labelled molecule tumbles more slowly, as on binding a larger partner.

[3] abbreviates: Table 1, 1 μM compound, 100 nM fluorescent ligand, 200 nM FKBP12.
The mark [4] stands for this setting: Table 2, 1 μM compound, 100 nM fluorescent ligand, 200 nM FKBP12.

T1 sequence (P62942 whole entry, species assumed): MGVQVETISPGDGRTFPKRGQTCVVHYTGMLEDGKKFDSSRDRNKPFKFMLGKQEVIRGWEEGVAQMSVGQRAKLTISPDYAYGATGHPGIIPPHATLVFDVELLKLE

Take `COc1cc(C(=O)C(=O)N2C3CCC2C(=O)N(C(CCc2ccccc2)CCc2ccccc2)C3)cc(OC)c1OC` [Example 5, (1S,5R)-8-(3,4,5-Trimethoxyphenyl)oxalyl-3,8-diaza-3-[3-phenyl-1-(2-phenylethyl)propyl]bicyclo[3.2.1]octan-2-one]: at 1 µM the inhibition in test [1] (Table 2, 1 μM compound) was 49%.
As to `CCC(C)(C)C(=O)C(=O)N1CCCC[C@H]1C(=O)OC(CCCc1ccccc1)CCNC(=S)Nc1ccc(-c2c3ccc(=O)cc-3oc3cc(O)ccc23)c(C(=O)O)c1` (stereo partly drawn) [fluorescent FKBP12 ligand, 1-Phenyl-6-(fluoresceinylaminothiocarbamoyl)-4-hexyl-(S)-N-(t-pentylglyoxyl)pipecolate, reference compound], the Ki in test [1] (read-out: Ki measured by the prolyl isomerase assay) was 32 nM.
In test [2] (Table 2), `COc1ccc(CCC(CCc2ccccc2)CN2C[C@H]3CC[C@@H](C2=O)N3C(=O)C(=O)c2cc(OC)c(OC)c(OC)c2)cc1OC` (stereo partly drawn) [Example 14, (1S,5R)-8-(3,4,5-Trimethoxyphenyl)oxalyl-3,8-diaza-3-[4-(3,4-dimethoxyphenyl)-2-(2-phenylethyl)butyl]-bicyclo[3.2.1]octan-2-one] registered a Ki of 169 nM.
With `COc1cc(C(=O)C(=O)N2C3CCC2C(=O)N(CCCO)C3)cc(OC)c1OC` [Example 42, (1S,5R)-8-(3,4,5-trimethoxyphenyl)oxalyl-3,8-diaza-3-(3-hydroxypropyl)bicyclo[3.2.1]octan-2-one], in test [2] (setting [3]), the inhibition at 1 µM is 19%.
Take `COc1ccc(CCCCN2CC3CCCC(C2=O)N3C(=O)C(=O)c2cc(OC)c(OC)c(OC)c2)cc1OC` (stereo not drawn) [Example 17, 9-(3,4,5-Trimethoxyphenyl)oxalyl-3,9-diaza-3-[4-(3,4-dimethoxyphenyl)butyl]bicyclo[3.3.1]-nonan-2-one]: in test [2] (setting [3]), the inhibition at 1 µM was found to be 79%. In test [2] (Table 1), this compound showed a Ki of 140 nM.
The matching figures for `COc1ccc(CCCN2CC3CCCC(C2=O)N3C(=O)C(=O)c2cc(OC)c(OC)c(OC)c2)cc1OC` (stereo not drawn) [Example 16, 9-(3,4,5-Trimethoxyphenyl)oxalyl-3,9-diaza-3-[3-(3,4-dimethoxyphenyl)propyl]bicyclo[3.3.1]nonan-2-one]: 76% and 150 nM.
Consider `COc1cc(C(F)(F)C(=O)N2C3CCC2C(=O)N(CCCCc2ccccc2)C3)cc(OC)c1OC` [Example 32, (1S,5R)-8-(3,4,5-Trimethoxyphenyl)difluoroacetyl-3,8-diaza-3-(4-phenylbutyl)bicyclo-[3.2.1]octan-2-one], for which, in test [2] (setting [3]), the inhibition at 1 µM was determined as 4%.
`COc1ccc(CCCCN2CC3CCCC(C2=O)N3C(=O)C(F)(F)c2cc(OC)c(OC)c(OC)c2)cc1OC` (stereo not drawn) [Example 36, 9-(3,4,5-Trimethoxyphenyl)difluoroacetyl-3,9-diaza-3-[4-(3,4-dimethoxyphenyl)butyl]bicyclo[3.3.1]-nonan-2-one]: the inhibitory constant (Ki) in test [2] (Table 1) was 160 nM. Besides, in test [2], the inhibition at 1 µM amounted to 61%.
On to `COc1cc(C(=O)C(=O)N2C3CCCC2C(=O)N(CCCc2ccccc2)C3)cc(OC)c1OC` (stereo not drawn) [Example 18, 9-(3,4,5-Trimethoxyphenyl)oxalyl-3,9-diaza-3-(3-phenylpropyl)bicyclo[3.3.1]nonan-2-one], for which the Ki in test [2] (Table 1) stood at 60 nM.
Compound `COc1cc(CCCN2C[C@H]3CC[C@@H](C2=O)N3C(=O)C(F)(F)c2cc(OC)c(OC)c(OC)c2)cc(OC)c1OC` [Example 31, (1S,5R)-8-(3,4,5-Trimethoxyphenyl)difluoroacetyl-3,8-diaza-3-[3-(3,4,5-trimethoxyphenyl)propyl]bicyclo[3.2.1]octan-2-one] displayed a Ki in test [2] (Table 1) of 598 nM. Further, the inhibition at 1 µM in test [2] stood at 19%.
As to `COc1cc(CCCC(CCCc2ccccc2)CN2CC3CCC(C2=O)N3C(=O)C(=O)c2cc(OC)c(OC)c(OC)c2)cc(OC)c1OC` [Example 11, (1S,5R)-8-(3,4,5-Trimethoxyphenyl)oxalyl-3,8-diaza-3-[2-(3-phenylpropyl)-5-(3,4,5-trimethoxyphenyl)pentyl]bicyclo[3.2.1]octan-2-one], the inhibition at 1 µM in test [2] (setting [4]) was 17%.
With `COc1cc(CCCN2CC3CCCC(C2=O)N3C(=O)C(=O)c2cc(OC)c(OC)c(OC)c2)cc(OC)c1OC` (stereo not drawn) [Example 15, 9-(3,4,5-Trimethoxyphenyl)oxalyl-3,9-diaza-3-[3-(3,4,5-trimethoxyphenyl)propyl]bicyclo[3.3.1]nonan-2-one], the inhibition at 1 µM in test [2] (setting [3]) was found to be 44%. The compound further registered a Ki in test [2] (Table 1) of 100 nM.
In the same order, the values of `COc1ccc(CCCN2C[C@H]3CC[C@@H](C2=O)N3C(=O)C(=O)c2cc(OC)c(OC)c(OC)c2)cc1OC` [Example 3, (1S,5R)-8-(3,4,5-Trimethoxyphenyl)oxalyl-3,8-diaza-3-[3-(3,4-dimethoxyphenyl)propyl]bicyclo[3.2.1]octan-2-one] are 26% and 380 nM.
As to `COc1cc(CCCC(CCCc2ccccc2)CN2CC3CCCC(C2=O)N3C(=O)C(F)(F)c2cc(OC)c(OC)c(OC)c2)cc(OC)c1OC` (stereo not drawn) [Example 38, 9-(3,4,5-Trimethoxyphenyl)difluoroacetyl-3,9-diaza-3-[2-(3-phenylpropyl)-5-(3,4,5-trimethoxyphenyl)pentyl]bicyclo[3.3.1]-nonan-2-one], the inhibition at 1 µM in test [2] (setting [4]) was 50%.
As for `COc1cc(C(F)(F)C(=O)N2C3CCCC2C(=O)N(CC(CCCc2ccccc2)CCCc2ccccc2)C3)cc(OC)c1OC` (stereo not drawn) [Example 37], the inhibition at 1 µM in test [2] (setting [4]) was determined as 4%.
